Source: PMC7449455 (PLoS Neglected Tropical Diseases, 2020)
“Also recorded” adds a separate entry of the source. Structures can show the parent of a compound that is named as a salt.

How the values were obtained:
L. major [1] = assay: L. major ex vivo lymph node explant culture (EVC), luminometry; format: cell-based, Leishmania major; details: 48 h at 34°C, luminescence
Description: An ex vivo explant culture (EVC) used in multiple experiments was obtained as previously described. Briefly, the mice were inoculated on the snout and rump with 10^7 metacyclic promastigotes of L. major-LUC. At 3 weeks post-infection (p.i.), the draining lymph nodes (retropharyngeal and sub-iliac) of infected animals were aseptically removed, infiltrated with 2 mg/mL of collagenase D (Roche) and incubated for 30 minutes at 37°C [21]. The cell suspension was washed in DMEM, and re-suspended in 2X supplemented culture medium, composed of DMEM (Cellgro), 10% heat-inactivated FBS (Atlanta Biologicals, Lawrenceville, GA), 2 mM Sodium pyruvate (Sigma, St. Louis MO), 2X MEM amino acids solution (Sigma), and 20 mM HEPES buffer (Cellgro). The EVC 100,000-cell suspension in 100 μL was dispensed in white luminometry plates (Costar) and exposed to 2-fold serial dilutions of 2X H1RAs in 100 μL DMEM (plain culture medium).
(§1) Cells exposed to compounds were lysed and the luciferase signal read in a plate luminometer (FLUOstar Omega, BMG Labtech) after adding 100 μL of luciferin substrate (Promega). The percentage of parasite inhibition compared with the vehicle control was calculated as = 100 - [(parasite counts in treated cells/parasite counts in vehicle wells) x 100]. The EC50 was determined by regression analysis using GraphPad (Prism 5.0) and the mean and standard error from three different experiments was utilized to estimate the final EC50. The anti-leishmanial efficacy of compounds was evaluated using L. major-LUC promastigotes in the logarithmic phase of growth (4 days). The parasites were grown in M199 supplemented with 20% FBS, 0.1% hemin and 10 mM adenine. Then, L. major was harvested and exposed to serial 2-fold dilutions of the compounds in a 100μL volume (10^6 promastigotes/mL) in 96-well white plates. After 48 h at 28°C incubation, the parasites were pelleted by centrifugation, lysed and 100 μL of luciferin substrate was added (Promega). The luciferase signal was read as described above.

[2] = Cytotoxicity in HepG2 cells (CellTiter-Glo); format: cell-based; details: human, HepG2 cell line, ATP quantification
Description: (§2) To determine compound toxicity we used the HepG2 cell line (human hepatocellular carcinoma, ATCC HB-8065) as a widely used cell-based assay. The cells were maintained in MEM (Gibco) supplemented with 5% heat-inactivated FBS, 1 mM Sodium pyruvate (Gibco) and 1X MEM amino acids solution (Sigma). Briefly, cells were added to white-bottomed 96-well plates containing 100 μL of serial 2-fold dilutions of the H1RAs. After 24 hours of culture at 37 °C, the percentage of viable cells was determined by ATP quantification using the CellTiter-Glo luminescent Cell Viability Assay (Promega) according to the manufacturer’s instructions. […] At least three different assays were carried out to determine the IVTI of each compound, which was calculated as the ratio between the CC50 obtained in the HepG2 cell line and the EC50 determined in the L. major EVC [21]. To evaluate the cytotoxicity of AZ and FX in peritoneal macrophages, adherent cells obtained from peritoneal lavage of naïve mice (10,000/well) were exposed during 24 hours at 37°C to serial drug concentrations (0.09 μM—200 μM). Cell viability was determined by CellTiter-Glo (Promega).

[3] = design: method as in PMID 11316966; details: daily oral 4 mg for 21 days, chronic idiopathic urticaria; cited from earlier work
[4] = tested on: L. major-LUC promastigotes; assay: L. major-LUC promastigote culture, luminometry; format: cell-based, Leishmania major; details: 48 h, compared with concentrations used against intracellular amastigotes
Description: as §1

[5] = tested on: h1r, il-1ẞ, IL-6 expression; assay: Gene expression by qPCR in L. major ex vivo lymph node explant culture; format: cell-based, mouse; details: EVC; for expression of H1R / expression of IL-1ẞ: quantitative PCR
Description: After 48 h of ex vivo treatments, the samples were lysed in 10 μL of IGEPAL lysis buffer (10 mM Tris-HCL ph7.4 + 0.3% IGEPAL, 0.1% BSA + 150 mM NaCl and 1,500 cells/μL) and reverse transcribed (High-Capacity cDNA Reverse Transcription Kit, ThermoFisher Sci.). Mouse h1r, il-1ẞ, and Leishmania 18s genes were amplified by qPCR using the following primers: mouse h1r: Fw- […]; Rev-[…] (PrimerBank database; ID and 31542963a1); Mouse il-1β: Fw- […]; Rev- […]); Leishmania 18s: Fw-[…]; Rev- […] [28]. Amplicons were detected with SYBR. The fold change of gene expression was estimated by the delta CT method using the host cell 18s as reference gene. The percentage of parasite load was calculated with reference to DMSO controls.

[6] = Cytotoxicity in naive mouse peritoneal macrophages (CellTiter-Glo); format: cell-based; details: read-out: CC50 (toxicity in peritoneal macrophages)
Description: as §2

L. major [7] = assay: L. major-infected peritoneal macrophages with or without CD3+ T cells, luminometry; format: cell-based, Leishmania major
Description: The anti-leishmanial efficacy of AZ was also evaluated in adherent peritoneal macrophages from naïve mice infected in vitro with L. major promastigotes (1 cell: 10 parasites) during 4 h at 34°C. After washing extracellular parasites, infected cells were transferred to white plates (10,000/well) and exposed to AZ. The effect of T cells on parasite burden of AZ-treated cells was evaluated using CD3T+ cells. These cells were isolated by positive selection with magnetic beads (MojoSort, Biolegend) from the lymph nodes of either uninfected or L. major-infected mice (1 infected macrophage: 2 lymphocytes ratio). Parasite burden was determined after 48 h of culture by luminometry.

L. major [8] = assay: In vivo efficacy in BALB/c mice infected with L. major-LUC
Description: Mice were infected in the rump with 10^7 opsonized promastigotes of L. major-LUC as we previously described. The animals were treated starting at day 3 p.i. for up to 10 days. AZ (0.0625 and 0.125 mg/mouse) and FX (40 and 80 mg/kg) were dissolved in sterile PBS and administered by intralesional injection (ID) or gavage (PO), respectively. Mice receiving AZ were treated 3 times at 48-hour intervals. Control mice received sterile PBS according to the route used by each H1RAs (ID or PO). Miltefosine was administered orally at doses of 25 mg/kg or 50 mg/kg for 10 days and used as positive control of parasite suppression. The clinical efficacy was assessed by comparing lesion size (LS) after 10 days of treatment compared with the negative vehicle control as described by Grogl et al.. Therefore, percent suppression was defined as [(LS negative control–LS compound) / LS negative control] x 100. A parasite suppression ≥50% compared with the untreated control was considered significant anti-leishmanial activity. Lesion size (area in mm^2 = length x width) was measured using a digital caliper (Mitutoyo; Kawasaki, Japan).
The parasite burden of individual mice was assessed in vivo at the beginning and end of the experiment using the IVIS Spectrum equipment (Perkin Elmer) by injecting the animals with 1.5 mg luciferin (GoldBio) intradermally at the infection site. The ultrasensitive IVIS camera quantitatively measures the light emitted by the luciferase-transfected L. major upon exposure to the substrate (firefly luciferin). The mice were imaged under deep anesthesia using an isoflurane vaporizer. They were placed in a supine position in the pre-warmed IVIS box and the images were taken exactly 5 minutes after luciferin injection. The analysis was performed after defining a standard region of interest (ROI) over the infection site using the Living Image software (Xenogen Corporation, Almeda, CA). This protocol allowed us to determine the parasite burden in the same animal over multiple time points. Results were expressed in units of photons per second. […] This approach is in accordance with the criteria proposed for Leishmania in deciding when a compound qualifies to progress into ‘lead’ compound identification.

L. infantum [9] = tested on: L. infantum; design: method as in PMID 31002807; details: infected spleen macrophages from hamsters; cited from earlier work
Leishmania mexicana = details: alone or in combination with pentostam; cited from earlier work
L. infantum [10] = tested on: L. infantum; design: method as in PMID 31002807, PMID 24905294; details: cited from earlier work
[11] = AZ 0.06 mg/mouse intralesional, statistically non-significant
[12] = AZ 0.125 mg/mouse intralesional x3, luminometry
[13] = FX lower-dose regimens (40 mg/kg twice a day or 80 mg/kg once a day)

With C[C@@H]1[C@H](O)[C@@H](C)/C=C/C=C/C=C/C=C/C=C/C=C/C=C/[C@H](O[C@@H]2O[C@H](C)[C@@H](O)[C@H](N)[C@@H]2O)C[C@@H]2O[C@](O)(C[C@@H](O)C[C@@H](O)[C@H](O)CC[C@@H](O)C[C@@H](O)CC(=O)O[C@H]1C)C[C@H](O)[C@H]2C(=O)O [Amphotericin B] the EC50 (L. major [1]; Leishmania major, 48 h) was 0.5 ± 0.01 µM and the CC50 at 24 h [2] was 16.3 ± 1.49 µM.
For CN1CCCC(n2nc(Cc3ccc(Cl)cc3)c3ccccc3c2=O)CC1 (stereo not shown) [Azelastine], the side effects [3] is listed as “lack of side effects”, the “suppressive effect against cultured promastigotes” value [4] is listed as “suppressive effect against cultured promastigotes only when used at concentrations 100-fold higher” and the “decrease of the expression of IL-6” value ([5]; qPCR, highly variable) is listed as 20.1± 21%. The “expression of H1R” value [5] was “significantly inhibited its expression”, the “expression of IL-1ẞ” value [5] was “reduced the pro-inflammatory cytokine IL1-ẞ” and the CC50 at 24 h [6] was 950 nM. For the same compound, the intracellular amastigote suppression (L. major [7]; 0.5 μM, infected naive mouse peritoneal macrophages, 48 h) was “positive effect on intracellular amastigote suppression”, the “parasite killing with primed T cells from infected mice” value (L. major [7]; in presence of AZ, versus macrophages alone or with naive lymphocytes) was “significantly enhanced parasite killing” and the EC50 (L. major [1]; Leishmania major, 48 h) was 0.05 ± 0.02 µM. For the same compound, the “reduction of parasite burden in lymph node” value (L. major [8]; [11]) was 15%, the “reduction of parasite burden in the lesion” value (L. major [8]; [11]) was 57% and the “reduction of parasite load in lymph node” value (L. major [8]; [12]) was 36%. For the same compound, the “reduction of parasite load in the lesion” value (L. major [8]; [12]) was 87%, the “lesion diminution compared with untreated controls” value (L. major [8]; AZ 0.125 mg/mouse, three intralesional injections every other day) was 52% and the “weight loss or observable side effect” value (L. major [8]; AZ intralesional, 0.125 mg/mouse, listed as AZ) was “no observable side effects; also recorded: None of the mice treated with this compound presented weight loss or any observable side effect”. It also gave a CC50 at 24 h [2] of 45.1 ± 11.2 µM.
CN(C)CCN(Cc1ccc(Cl)cc1)c1ccccn1 [Chloropyramine] showed an EC50 (L. major [1]) of 3.87 ± 0.2 µM, an EC50 (L. major [1]; listed as chloropyramine) of less than 10 µM and a CC50 at 24 h [2] of 140 ± 49.6 µM.
CN1CCC(=C2c3ccccc3C=Cc3ccccc32)CC1 [Cyproheptadine] showed a CC50 at 24 h [2] of 172 ± 41 µM.
With CN(C)CC[C@@H](c1ccc(Cl)cc1)c1ccccn1 [Dexchlorpheniramine maleate] the EC50 (L. major [1]; Leishmania major, 48 h) was 35.2 ± 6.9 µM and the CC50 at 24 h [2] was 177 ± 16.3 µM.
For CC(C)(C(=O)O)c1ccc(C(O)CCCN2CCC(C(O)(c3ccccc3)c3ccccc3)CC2)cc1 (stereo not shown) [Fexofenadine], the IC50 (L. infantum [9]) is listed as greater than 100 µM, the EC50 (L. major [1]; Leishmania major, 48 h) is listed as 1.5 ± 0.18 µM and the “reduction in lesion size” value (L. major [8]; FX 40 mg/kg PO twice a day) is listed as 50%. For the same compound, the “reduction in lesion size” value (L. major [8]; FX 80 mg/kg PO once a day) was 37%, the “loss of body weight” value (L. major [8]; FX 80 mg/kg PO twice a day) was no more than 5% and the “reduction in lesion size compared with untreated control” value (L. major [8]; FX 80 mg/kg PO twice a day) was 69%. The “reduction in parasite burden at the lesion site” value (L. major [8]; FX 80 mg/kg PO twice a day) was 82%, the “reduction in parasite burden in draining lymph nodes” value (L. major [8]; FX 80 mg/kg PO twice a day) was 81% and the clinical side effects (L. major [8]; FX PO, 80 mg/kg twice a day, listed as FX, 80 mg/kg) was “no observable side effects; also recorded: no other clinical side effect was found”. The “reduction of parasite load in lesions” value (L. major [8]; [13]) was “up to 59%” and the “reduction of parasite load in lymph nodes” value (L. major [8]; [13]) was no more than 72%.
Work on CN1CCC(=C2c3ccccc3CC(=O)c3sccc32)CC1 [Ketotifen] yielded an EC50 (L. major [1]; Leishmania major, 48 h) of 11.86 ± 0.1 µM and a CC50 at 24 h [2] of 282 ± 22.9 µM.
For c1ccc2c(c1)Sc1ccccc1N2CC1CN2CCC1CC2 (stereo not shown) [Mequitazine], the EC50 (L. major [1]) was 4.53 ± 3.9 µM, the EC50 (L. major [1]; listed as mequitazine) was less than 10 µM and the CC50 at 24 h [2] was 50.3 ± 8.75 µM.
For CN1CCN2c3ccccc3Cc3ccccc3C2C1 (stereo not shown) [Mianserin], the CC50 at 24 h [2] was 157 ± 19 µM.
CCCCCCCCCCCCCCCCOP(=O)([O-])OCC[N+](C)(C)C [Miltefosine] gave an EC50 (L. major [1]; Leishmania major, 48 h) of 1.64 ± 0.26 µM and a CC50 at 24 h [2] of 74.9 ± 5.01 µM.
Cc1ccc(/C(=C\CN2CCCC2)c2ccccn2)cc1 [Triprolidine] gave an EC50 (L. major [1]; Leishmania major, 48 h) of 11.2 ± 4.2 µM and a CC50 at 24 h [2] of 390 ± 27.9 µM.
For CN/C(=N/CCSCc1nc[nH]c1C)NC#N [cimetidine], the treatment efficacy (Leishmania mexicana) is given as “effective”.
For C(=C\c1ccccc1)/CN1CCN(C(c2ccccc2)c2ccccc2)CC1 [cinnarizine], the “parasite load in hamster spleen” value (L. infantum [10]) is given as “failed to significantly decrease the parasite load”.
For NCCc1c[nH]cn1 [histamine], the “expression of H1R” value [5] was “markedly increased the expression of H1R” and the “expression of IL-1ẞ” value [5] was “increased the expression of IL-1ẞ”.
